{"source": "patent US11446287B2", "about": "“Compounds and methods for EP300 or CBP modulation and indications therefor” (Opna Immuno-Oncology SA, priority 2019, dated 2022)", "data": [{"target": "T1, Recombinant human BRD4 containing dual bromodomains (BRD4-BD12 (1-477)) (Homo sapiens, UniProt O60885)", "T1 construct": "Recombinant human BRD4 containing dual bromodomains (BRD4-BD12 (1-477)); made in house; host or cells: E. coli BL21-CodonPlus (DE3), modified pET vector", "assay": "BRD4 Alphascreen binding assay", "in_short": "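AlphaScreen proximity between Ni-chelate-bound BRD4-BD12 (1-477) and streptavidin-captured H4 K5/K8/K12/K16-acetyl peptide measured after 1 h room-temperature compound incubation and 30 min with 7.5 μg/ml beads. Buffer: 50 mM HEPES pH 7.5, 50 mM NaCl, 0.01% BSA, 0.01% Triton X-100; data plate-normalized and four-parameter fit for IC50.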", "units": {"IC50": "µM"}, "values": [{"molecule": "CCOc1c(F)c(C(=O)O)c(F)c(OCC)c1-c1cn(-c2ccc(F)cc2F)c2ncc(-c3c(C)noc3C)cc12", "note": "[P-0296, 4-(1-(2,4-difluorophenyl)-5-(3,5-dimethylisoxazol-4-yl)-1H-pyrrolo[2,3-b]pyridin-3-yl)-3,5-diethoxy-2,6-difluorobenzoic acid]", "IC50": "8 to 1000"}, {"molecule": "CCOc1cc(C(=O)O)c(F)c(OCC)c1-c1cn(-c2ccc(F)cc2F)c2ncc(-c3c(C)noc3C)cc12", "note": "[P-0297, 4-(1-(2,4-difluorophenyl)-5-(3,5-dimethylisoxazol-4-yl)-1H-pyrrolo[2,3-b]pyridin-3-yl)-3,5-diethoxy-2-fluorobenzoic acid]", "IC50": "8 to 1000"}, {"molecule": "Cc1noc(C)c1-c1cnc2c(-c3ccccc3)cn(-c3c(OCC(F)(F)F)cc(C(=O)O)cc3OCC(F)(F)F)c2c1", "note": "[P-0298, 4-(6-(3,5-dimethylisoxazol-4-yl)-3-phenyl-1H-pyrrolo[3,2-b]pyridin-1-yl)-3,5-bis(2,2,2-trifluoroethoxy)benzoic acid]", "IC50": "1 to 8"}, {"molecule": "Cc1noc(C)c1-c1cnc2c(c1)c(-c1ccc(C(=O)O)cc1OC(C)C)cn2-c1cnn(CC(C)(C)O)c1", "note": "[P-0299, 4-(5-(3,5-dimethylisoxazol-4-yl)-1-(1-(2-hydroxy-2-methylpropyl)-1H-pyrazol-4-yl)-1H-pyrrolo[2,3-b]pyridin-3-yl)-3-isopropoxybenzoic acid]", "IC50": "1 to 8"}, {"molecule": "Cc1noc(C)c1-c1cnc2c(c1)c(-c1ccc(C(=O)O)cc1OC(C)C)cn2-c1cnc(N2CCC2)nc1", "note": "[P-0300, 4-(1-(2-(azetidin-1-yl)pyrimidin-5-yl)-5-(3,5-dimethylisoxazol-4-yl)-1H-pyrrolo[2,3-b]pyridin-3-yl)-3-isopropoxybenzoic acid]", "IC50": "8 to 1000"}, {"molecule": "Cc1noc(C)c1-c1cnc2c(c1)c(-c1ccc(C(=O)O)cc1OC(C)C)cn2[C@H]1CCOC1", "note": "[P-0301, (S)-4-(5-(3,5-dimethylisoxazol-4-yl)-1-(tetrahydrofuran-3-yl)-1H-pyrrolo[2,3-b]pyridin-3-yl)-3-isopropoxybenzoic acid]", "IC50": "8 to 1000"}, {"molecule": "Cc1noc(C)c1-c1cnc2c(c1)c(-c1ccc(S(C)(=O)=O)cc1OC(C)C)cn2-c1ccccc1", "note": "[P-0302, 4-(3-(2-isopropoxy-4-(methylsulfonyl)phenyl)-1-phenyl-1H-pyrrolo[2,3-b]pyridin-5-yl)-3,5-dimethylisoxazole]", "IC50": "8 to 1000"}, {"molecule": "CCCn1nc(C(=O)O)c(N)c1-c1cn(-c2ccc(F)cc2F)c2ncc(-c3c(C)noc3C)cc12", "note": "[P-0303, 4-amino-5-(1-(2,4-difluorophenyl)-5-(3,5-dimethylisoxazol-4-yl)-1H-pyrrolo[2,3-b]pyridin-3-yl)-1-propyl-1H-pyrazole-3-carboxylic acid]", "IC50": "8 to 1000"}, {"molecule": "CCCn1nc(C(=O)O)c(NCC)c1-c1cn(-c2ccc(F)cc2F)c2ncc(-c3c(C)noc3C)cc12", "note": "[P-0304, 5-(1-(2,4-difluorophenyl)-5-(3,5-dimethylisoxazol-4-yl)-1H-pyrrolo[2,3-b]pyridin-3-yl)-4-(ethylamino)-1-propyl-1H-pyrazole-3-carboxylic acid]", "IC50": "1 to 8"}, {"molecule": "Cc1nnn(C)c1-c1cnc2c(c1)c(-c1ccc(C(=O)O)cc1OC(F)(F)F)cn2CC/C=C/C1CC1", "note": "[P-0305, (E)-4-(1-(4-cyclopropylbut-3-en-1-yl)-5-(1,4-dimethyl-1H-1,2,3-triazol-5-yl)-1H-pyrrolo[2,3-b]pyridin-3-yl)-3-(trifluoromethoxy)benzoic acid]", "IC50": "8 to 1000"}, {"molecule": "Cc1noc(C)c1-c1cnc2c(c1)c(-c1ccc(C(=O)O)cc1OCC(F)F)cn2-c1ccncc1Cl", "note": "[P-0306, 4-(1-(3-chloropyridin-4-yl)-5-(3,5-dimethylisoxazol-4-yl)-1H-pyrrolo[2,3-b]pyridin-3-yl)-3-(2,2-difluoroethoxy)benzoic acid]", "IC50": "8 to 1000"}, {"molecule": "Cc1noc(C)c1-c1cnc2c(c1)c(-c1ccc(C(=O)O)cc1OC(F)(F)F)cn2-c1ccccc1Cl", "note": "[P-0307, 4-(1-(2-chlorophenyl)-5-(3,5-dimethylisoxazol-4-yl)-1H-pyrrolo[2,3-b]pyridin-3-yl)-3-(trifluoromethoxy)benzoic acid]", "IC50": "1 to 8"}, {"molecule": "Cc1noc(C)c1-c1cnc2c(c1)c(-c1ccc(C(=O)O)cc1OC(F)(F)F)cn2-c1ccccc1C1CC1", "note": "[P-0308, 4-(1-(2-cyclopropylphenyl)-5-(3,5-dimethylisoxazol-4-yl)-1H-pyrrolo[2,3-b]pyridin-3-yl)-3-(trifluoromethoxy)benzoic acid]", "IC50": "1 to 8"}, {"molecule": "Cc1noc(C)c1-c1cnc2c(c1)c(-c1ccc(C(=O)O)cc1OC(F)(F)F)cn2-c1ccccc1C#N", "note": "[P-0309, 4-(1-(2-cyanophenyl)-5-(3,5-dimethylisoxazol-4-yl)-1H-pyrrolo[2,3-b]pyridin-3-yl)-3-(trifluoromethoxy)benzoic acid]", "IC50": "8 to 1000"}, {"molecule": "Cc1cc(C#N)ccc1-n1cc(-c2ccc(C(=O)O)cc2OC(F)(F)F)c2cc(-c3c(C)noc3C)cnc21", "note": "[P-0310, 4-(1-(4-cyano-2-methylphenyl)-5-(3,5-dimethylisoxazol-4-yl)-1H-pyrrolo[2,3-b]pyridin-3-yl)-3-(trifluoromethoxy)benzoic acid]", "IC50": "1 to 8"}, {"molecule": "COc1ccc(-n2cc(-c3ccc(C(=O)O)cc3OC(F)(F)F)c3cc(-c4c(C)noc4C)cnc32)c(F)c1", "note": "[P-0311, 4-(5-(3,5-dimethylisoxazol-4-yl)-1-(2-fluoro-4-methoxyphenyl)-1H-pyrrolo[2,3-b]pyridin-3-yl)-3-(trifluoromethoxy)benzoic acid]", "IC50": "1 to 8"}, {"molecule": "C=C(C)c1ccccc1-n1cc(-c2ccc(C(=O)O)cc2OC(F)(F)F)c2cc(-c3c(C)noc3C)cnc21", "note": "[P-0312, 4-(5-(3,5-dimethylisoxazol-4-yl)-1-(2-(prop-1-en-2-yl)phenyl)-1H-pyrrolo[2,3-b]pyridin-3-yl)-3-(trifluoromethoxy)benzoic acid]", "IC50": "8 to 1000"}, {"molecule": "Cc1noc(C)c1-c1cnc2c(c1)c(-c1ccc(C(=O)O)cc1OC(F)(F)F)cn2-c1ccc(C#N)cc1", "note": "[P-0313, 4-(1-(4-cyanophenyl)-5-(3,5-dimethylisoxazol-4-yl)-1H-pyrrolo[2,3-b]pyridin-3-yl)-3-(trifluoromethoxy)benzoic acid]", "IC50": "1 to 8"}, {"molecule": "Cc1noc(C)c1-c1cnc2c(c1)c(-c1ccc(C(=O)O)cc1OC(F)(F)F)cn2-c1ccc(C(C)(C)O)cc1", "note": "[P-0314, 4-(5-(3,5-dimethylisoxazol-4-yl)-1-(4-(2-hydroxypropan-2-yl)phenyl)-1H-pyrrolo[2,3-b]pyridin-3-yl)-3-(trifluoromethoxy)benzoic acid]", "IC50": "0.0001 to 1"}, {"molecule": "Cc1noc(C)c1-c1cnc2c(c1)c(-c1ccc(C(=O)O)cc1OC(F)(F)F)cn2-c1ccsc1", "note": "[P-0315, 4-(5-(3,5-dimethylisoxazol-4-yl)-1-(thiophen-3-yl)-1H-pyrrolo[2,3-b]pyridin-3-yl)-3-(trifluoromethoxy)benzoic acid]", "IC50": "0.0001 to 1"}]}]}
